Measured values taken from ChEMBL document CHEMBL1124621, “Inhibition of mammalian folylpolyglutamate synthetase and human dihydrofolate reductase by 5,8-dideaza analogues of folic acid and aminopterin bearing a terminal L-ornithine” (J Med Chem, 1989).

Tests used:
Dihydrofolate reductase = biological target: T1, Dihydrofolate reductase (Homo sapiens, UniProt P00374); assay: Inhibition of human dihydrofolate reductase; settings: read-out: I50
T1 sequence (P00374 whole entry): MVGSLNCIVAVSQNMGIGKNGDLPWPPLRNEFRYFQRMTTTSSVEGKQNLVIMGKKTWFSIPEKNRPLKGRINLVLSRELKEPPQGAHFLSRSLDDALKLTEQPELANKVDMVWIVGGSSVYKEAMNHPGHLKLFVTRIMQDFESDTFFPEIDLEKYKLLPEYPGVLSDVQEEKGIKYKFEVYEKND

Sus scrofa [1] = organism: Sus scrofa; assay: Maximal elimination rate of metabolism for hog liver folyl-poly-glutamate synthetase was evaluated; assay type: ADME; parameters: unit not given here; settings: pig
Sus scrofa [2] = organism: Sus scrofa; assay: (§1) Km for hog liver folyl-poly-glutamate synthetase was evaluated; assay type: ADME; settings: pig
[3] = tested on: folylpolyglutamate synthetase; assay: as §1; assay type: ADME, Sus scrofa; settings: pig, hog liver folylpolyglutamate synthetase

Compound	IC50 (Dihydrofolate reductase)	Vmax (Sus scrofa [1])	Km (Sus scrofa [2])	Km [3]
NCCCC(NC(=O)c1ccc(OCc2ccc3nc[nH]c(=O)c3c2)cc1)C(=O)O (stereo not drawn)	3800 nM	–	–	–
Nc1nc2ncc(CNc3ccc(C(=O)N[C@@H](CCC(=O)O)C(=O)O)cc3)nc2c(=O)[nH]1 (stereo in doubt; form 2) [FOLIC ACID]	–	61	93 µM	–
Nc1nc2ncc(CNc3ccc(C(=O)N[C@@H](CCC(=O)O)C(=O)O)cc3)nc2c(=O)[nH]1 (stereo in doubt; form 1) [FOLIC ACID]	–	100	7.7 µM	–
NCCCC(NC(=O)c1ccc(NCc2ccc3nc(N)nc(N)c3c2Cl)cc1)C(=O)O (stereo not drawn)	3 nM	–	–	–
NCCCC(NC(=O)c1ccc(SCc2ccc3nc(N)[nH]c(=O)c3c2)cc1)C(=O)O (stereo not drawn)	1500 nM	–	–	–
NCCCC(NC(=O)c1ccc(OCc2ccc3nc(N)nc(O)c3c2)cc1)C(=O)O (stereo not drawn)	530 nM	–	–	–
Nc1nc(O)c2c(Cl)c(CNc3ccc(C(=O)NC(CCC(=O)O)C(=O)O)cc3)ccc2n1 (stereo not drawn)	100 nM	68	–	0.3 µM
NCCCC(NC(=O)c1ccc(NCc2ccc3nc(N)[nH]c(=O)c3c2Cl)cc1)C(=O)O (stereo not drawn)	430 nM	–	–	–
O=C(O)CCC(NC(=O)c1ccc(SCc2ccc3ncnc(O)c3c2)cc1)C(=O)O (stereo not drawn)	–	50	–	8.1 µM
Nc1nc(O)c2cc(CSc3ccc(C(=O)NC(CCC(=O)O)C(=O)O)cc3)ccc2n1 (stereo not drawn)	–	33	–	15 µM
O=C(O)CCC(NC(=O)c1ccc(OCc2ccc3ncnc(O)c3c2)cc1)C(=O)O (stereo not drawn)	–	95	–	35 µM
Nc1nc(O)c2cc(COc3ccc(C(=O)NC(CCC(=O)O)C(=O)O)cc3)ccc2n1 (stereo not drawn)	–	25	–	22 µM
Nc1nc(N)c2c(Cl)c(CNc3ccc(C(=O)NC(CCC(=O)O)C(=O)O)cc3)ccc2n1 (stereo not drawn)	–	57	–	0.2 µM
NCCCC(NC(=O)c1ccc(SCc2ccc3ncnc(O)c3c2)cc1)C(=O)O (stereo not drawn)	3800 nM	–	–	–
